# Results taken from patent publication US6756389B2, “Pharmaceutically active compounds and methods of use” (Cambridge Neuroscience, Inc., priority 1996, dated 2004).
# Structures can show the parent of a compound that is named as a salt.
# Tested on: DBA/2 mice (audiogenic seizures)
# Test: In vivo anticonvulsant activity in the DBA/2 mouse model (mouse audiogenic assay)
# Conditions: 10 mg/kg intraperitoneally 30 minutes prior to auditory stimulus (12 KHz sine wave, 110-120 db, 60 seconds), inhibition relative to vehicle controls
# Experimental: As discussed above, preferred compounds of the invention are active in a standard anticonvulsant in vivo audiogenic test, such as the audiogenic mouse assay of Example 6 which follows, where DBA/2 mice about 20-23 days old are injected intraperitoneally with a test compound 30 minutes prior to being placed in a bell jar with exposure to auditory stimulus of 12 KHz sine wave at 110-120 db. References herein in vivo “audiogenic assay” are intended to refer to that protocol. […] As discussed above, activity in the audiogenic assay has been recognized as indicative that a test compound has neuroprotective properties. See, e.g., M. Tricklebank et al., European Journal of Pharmacology, supra; T. Seyfried, Federation Proceedings, supra.
# Compounds were tested for their effectiveness in preventing seizures in DBA/2 mice which have a unique sensitivity to auditory stimulation. Exposure to loud high-frequency sounds can trigger seizure activity in these animals. […]
# Mice were injected intraperitoneally with the compound specified in Table I below or with vehicle control, 30 minutes prior to being placed in a bell jar and turning on the auditory stimulus (12 KHz sine wave at 110-120 db). […] The auditory stimulus was left on for 60 seconds and mice reactions were timed and recorded. Percentage inhibition was determined with reference to vehicle controls.
row,Compound,Audiogenic Response % Inhib. [%]
1,"Cc1ccc([C@H]2CCC[C@@H](c3ccc(C)cc3)N2C(=N)N)cc1 [Example 1, N-carboximidamide-r-2, c-6-di(4-methylphenyl)piperidine]",42
2,"CC(C)c1ccc([C@H]2CCC[C@@H](c3ccc(C(C)C)cc3)N2C(=N)N)cc1.Cl [Example 2, N-carboximidamide-r-2,c-6-di(4-isopropylphenyl)piperidine]",69

# Tested on: not given
# Test: not given
# Conditions: not given
row,melting point [°C],Compound
1,82 to 84,Cl.N=C(Nc1ccccc1)N1[C@@H](c2ccccc2)CCC[C@H]1c1ccccc1
2,242 to 244,Cl.N=C(N)N1[C@@H](c2ccccc2)CC[C@H]1c1ccccc1

# More lines, now with the values behind:
row,Compound,melting point [°C]
1,"CC(C)c1ccc([C@H]2CCC[C@@H](c3ccc(C(C)C)cc3)N2C(=N)N)cc1.Cl [Example 2, N-carboximidamide-r-2,c-6-di(4-isopropylphenyl)piperidine]",197 to 199
2,Cc1ccc([C@H]2CCC[C@H](c3ccc(C)cc3)N2C(=N)N)cc1.Cl,120
3,"Cc1ccc([C@H]2CCC[C@@H](c3ccc(C)cc3)N2C(=N)N)cc1 (as salt: mesylate) [Example 1, N-carboximidamide-r-2, c-6-di(4-methylphenyl)piperidine]",183 to 185
